From patent US12697343B2, “Intravenous istaroxime for the treatment of acute heart failure” (Seismic Pharmaceuticals Operations LLC, priority 2021, dated 2026)
Where a name gives a salt, the structure may show the parent alone.

Tests used:
Type in all cases: in vivo, human
[1] = test system: patients hospitalized for acute heart failure (AHF); assay: Vital signs (systolic blood pressure, heart rate) during and after 24 h infusion
Description: This study was a phase II, multicenter, randomized, double-blind, placebo-controlled, parallel group investigation, conducted at two sites in Italy and eight sites in China. All patients provided written informed consent. The study was approved by country regulatory authorities and by local institutional review boards. The trial is registered in the European Clinical Trials Database (EudraCT 2013-000540-26) and ClinicalTrials.gov (NCT02617446).
Patients were randomized 2:1 to istaroxime or placebo 24 h infusion and were enrolled in two sequential cohorts, the first with an istaroxime dose of 0.5 μg/kg/min and the second with an istaroxime dose of 1.0 μg/kg/min. At the end of cohort 1 enrollment, an independent Data Safety and Monitoring Board conducted an interim safety analysis of unblinded data before proceeding to cohort 2 enrollment. Inclusion criteria were: age ≥18 years, an ongoing hospitalization for AHF with dyspnoea at rest or minimal exertion and need for intravenous diuretic therapy (40 mg intravenous furosemide), SBP between 90 and 125 mmHg without signs or symptoms of peripheral hypoperfusion: LVEF ≤40%: intermediate to high E/e′ ratio by tissue Doppler echocardiography (10); brain natriuretic peptide (BNP) or N-terminal pro BNP (NT-proBNP) plasma levels ≥350 pg/mL or ≥1400 pg/mL, respectively, and presence of adequate echocardiographic windows. The main exclusion criteria were: concomitant or planned treatment with intravenous vasodilators, inotropes or vasopressors: treatment with oral digoxin (patients treated with digoxin within the last week could be randomized if the plasma concentration at screening was 0.5 ng/mL); acute coronary syndrome or stroke within the past 3 months: coronary artery bypass graft or percutaneous coronary intervention within the past month or planned in the next month: resting HR >120 bpm or <50 bpm: life-threatening ventricular arrhythmia or implantable cardioverter-defibrillator shock within the past month: fever 38° C.; serum creatinine 3.0 mg/dL or estimated glomerular filtration rate (eGFR) 30 mL/min/m2; serum potassium 5.3 mmol/L or 3.8 mmol/L; severe hepatic dysfunction.
(§1) The primary efficacy endpoint was the change from baseline to 24 h after the start of the infusion in the E/e ratio assessed by tissue Doppler echocardiography. Secondary endpoints included the change from baseline to 24 h of other echocardiography parameters: LVEF, left ventricular end-systolic and end-diastolic volumes, stroke volume index, E, A, E/A ratio, and S′: changes in dyspnoea by visual analogue scale (VAS) and in NT-proBNP from baseline to 24 h: proportion of patients with hospital readmissions or emergency visits for cardiovascular reasons by day 30; proportion of patients with episodes of in-hospital worsening heart failure to day 4, and length of stay. In-hospital worsening heart failure was defined by the need to increase the dose or reinitiate intravenous therapy with diuretics and/or other inotropic agents to day 4. Safety endpoints were assessed throughout the study and included: incidence of adverse events (AEs): change in vital signs and in 12-lead electrocardiographic (ECG) parameters: incidence of clinically or haemodynamically significant episodes of supraventricular or ventricular arrhythmias detected by continuous ECG monitoring: standard laboratory parameters: renal function: cardiac troponin T (cTnT): incidence of cTnT elevations, and mortality at day 30. Elevations in cTnT were considered significant if they were >50% or >20% from baseline values, for patients with cTnT below or above the 99% upper reference limit at baseline, respectively.
The study design included a 24 h screening period, a 24 h study drug infusion phase (day 1), a post-treatment phase (days 2-4), and a follow-up visit at day 30 (FIG. 5). Patients could be enrolled at any time after admission. The use of oral medications was permitted during the study with the exception of digoxin. […]

[2] = test system: patients hospitalized for acute heart failure (AHF); assay: NT-proBNP serial measurements (Elecsys proBNP II)
Protocol: as §1
(§2) The study design included a 24 h screening period, a 24 h study drug infusion phase (day 1), a post-treatment phase (days 2-4), and a follow-up visit at day 30 (FIG. 5). Patients could be enrolled at any time after admission. The use of oral medications was permitted during the study with the exception of digoxin. Intravenous diuretics were permitted during the treatment period at stable doses, unless changes were required due to clinically relevant variations of the patient's condition. If treatment with an inotrope was clinically necessary during the infusion period, the investigational product was discontinued. Echocardiography was performed according to international standards at screening, baseline (just before starting study drug infusion), 6, 24 h (just before infusion end), and 48 h after infusion start. Echocardiographic measurements at baseline, 6, 24, and 48 h were evaluated in a blinded fashion by a CoreLab located at the University and Civil Hospital of Brescia, Italy. E/e′ ratio was calculated as the ratio between the peak early diastolic mitral flow velocity (E wave) and the mean of the annular lateral (e′ lateral) and septal (e′ septal) velocities, according to standard guidelines.^20 Intraobserver and interobserver variability in E/e′ measurement was tested on the 15% of the recordings and is shown in FIG. 6. Self-reported dyspnoea was assessed using a 100 mm VAS, with zero representing the worst level of dyspnoea and […] the best breathing condition. Twenty-four hour ECG monitoring was performed using a three-lead device (Mortara industries, Milwaukee, WI, USA) during the day of screening, the infusion period, and the day after (the latter was optional). Analysis was conducted by a blinded CoreLab (ICS Maugeri, Italy). Serial measurements of NT-proBNP throughout the study were analyzed by a central laboratory (Elecsys® proBNP II, Roche®, Basel, Switzerland). Samples for cTnT were taken at baseline, 3, 6, 12, 24, 48, and 72 h and on day 30, and were analyzed by a core laboratory (Elecsys® high-sensitivity assay, Roche®, Basel, Switzerland). AEs were monitored throughout the duration of the study.
The study was designed as a mechanistic and safety study to assess the effects of a 24 h istaroxime infusion in patients hospitalized for AHF. […]

[3] = test system: patients hospitalized for acute heart failure (AHF); assay: Adverse events, serious adverse events, laboratory safety and mortality to day 30
Protocol: as §1
as §2, with “Twenty-four hour ECG monitoring was performed using a three-lead device (Mortara industries, Milwaukee, WI, USA) during the day of screening, the infusion period, and the day after (the latter was optional). Analysis was conducted by a blinded CoreLab (ICS Maugeri, Italy).” left out, “study. […]” for “study.”

[4] = istaroxime 1.0 μg/Kg/min (n = 40), 30-day follow-up period

Q: `C[C@]12CCC(=NOCCN)C[C@@H]1C(=O)C[C@@H]1[C@@H]2CC[C@]2(C)C(=O)CC[C@@H]12` [Istaroxime, (E,Z)-3-((2-aminoethoxy)imino)androstane-6,17-dione hydrochloride] was tested. Which “HR mean change from baseline” value ([1]; 0.5 μg/Kg/min, 3 hours) did it give?
A: −4.21 bpm

Q: And the “SBP mean change from baseline” value ([1]; 0.5 μg/Kg/min, 3 hours)?
A: 1.49 mmHg

Q: What about the “HR mean change from baseline” value ([1]; 0.5 μg/Kg/min, 6 hours) of the same molecule?
A: −3.51 bpm

Q: And the “SBP mean change from baseline” value ([1]; 0.5 μg/Kg/min, 6 hours)?
A: 2.92 mmHg

Q: What about the “HR mean change from baseline” value ([1]; 0.5 μg/Kg/min, 12 hours) of the same molecule?
A: −4.59 bpm

Q: What about the “SBP mean change from baseline” value ([1]; 0.5 μg/Kg/min, 12 hours) of the same molecule?
A: 3.13 mmHg

Q: And the “HR mean change from baseline” value ([1]; 0.5 μg/Kg/min, 24 hours)?
A: −3.26 bpm

Q: And the “SBP mean change from baseline” value ([1]; 0.5 μg/Kg/min, 24 hours)?
A: 2.82 mmHg

Q: And the “HR mean change from baseline” value ([1]; 0.5 μg/Kg/min, 48 hours)?
A: −0.37 bpm

Q: What about the “SBP mean change from baseline” value ([1]; 0.5 μg/Kg/min, 48 hours) of the same molecule?
A: −3.10 mmHg

Q: And the “HR decreased from baseline by” value ([1]; 0.5 μg/kg/min)?
A: about 3 bpm

Q: And the “SBP increased from baseline by” value ([1]; 0.5 μg/kg/min)?
A: about 3 mmHg

Q: What about the “HR mean change from baseline” value ([1]; 1.0 μg/Kg/min, 3 hours) of the same molecule?
A: −10.61 bpm

Q: And the “SBP mean change from baseline” value ([1]; 1.0 μg/Kg/min, 3 hours)?
A: 7.63 mmHg

Q: What about the “HR mean change from baseline” value ([1]; 1.0 μg/Kg/min, 6 hours) of the same molecule?
A: −8.89 bpm

Q: What about the “SBP mean change from baseline” value ([1]; 1.0 μg/Kg/min, 6 hours) of the same molecule?
A: 8.08 mmHg

Q: What about the “HR mean change from baseline” value ([1]; 1.0 μg/Kg/min, 12 hours) of the same molecule?
A: −9.49 bpm

Q: What about the “SBP mean change from baseline” value ([1]; 1.0 μg/Kg/min, 12 hours) of the same molecule?
A: 9.00 mmHg

Q: And the “HR mean change from baseline” value ([1]; 1.0 μg/Kg/min, 24 hours)?
A: −9.61 bpm

Q: What about the “SBP mean change from baseline” value ([1]; 1.0 μg/Kg/min, 24 hours) of the same molecule?
A: 6.11 mmHg

Q: And the “HR mean change from baseline” value ([1]; 1.0 μg/Kg/min, 48 hours)?
A: 3.86 bpm

Q: What about the “SBP mean change from baseline” value ([1]; 1.0 μg/Kg/min, 48 hours) of the same molecule?
A: −1.73 mmHg

Q: And the “SBP increased from baseline by” value ([1]; 1.0 μg/kg/min, significant vs. placebo at 3 to 12 h)?
A: 6-8 mmHg

Q: And the “HR decreased from baseline by” value ([1]; 1.0 μg/kg/min, significant vs. placebo at 3 to 24 h)?
A: 8-9 bpm

Q: What about the “NT-proBNP, median change from baseline” value ([2]; 0.5 μg/Kg/min, 24 hours) of the same molecule?
A: 120 pg/mL

Q: What about the “NT-proBNP, median change from baseline” value ([2]; 0.5 μg/Kg/min, 48 hours) of the same molecule?
A: -431 pg/mL

Q: What about the “NT-proBNP, median change from baseline” value ([2]; 0.5 μg/Kg/min, 72 hours) of the same molecule?
A: -802 pg/mL

Q: And the “NT-proBNP, median change from baseline” value ([2]; 1.0 μg/Kg/min, 24 hours)?
A: -214 pg/mL

Q: What about the “NT-proBNP, median change from baseline” value ([2]; 1.0 μg/Kg/min, 48 hours) of the same molecule?
A: -563 pg/mL

Q: And the “NT-proBNP, median change from baseline” value ([2]; 1.0 μg/Kg/min, 72 hours)?
A: -528 pg/mL

Q: What about the “Mortality within the 30-day study period” value ([3]; 1.0 μg/kg/min group, cardiogenic shock) of the same molecule?
A: One patient died

Q: And the “rate of SAEs” value ([3]; in vivo)?
A: did not show meaningful differences

Q: What about the “rate of injection site reactions” value ([3]; in vivo, iv) of the same molecule?
A: high

Q: What about the “Serious adverse events: Cardiac death” value [3, 4] of the same molecule?
A: 1 number of patients

Q: And the “Serious adverse events: Cardiac death, percent of patients” value [3, 4]?
A: (2.5) %
